In patent publication US20240226343A1, “NEUROPEPTIDE Y1 RECEPTOR (NPY1R) TARGETED THERAPEUTICS AND USES THEREOF” (RADIONETICS ONCOLOGY, INC., priority 2022, published 2024):
Where two headings read alike, the source gives them in different places.

Target: T1, hNPY1R (Homo sapiens, UniProt P25929)
T1 construct: SK-N-MC cells endogenously expressing the NPY1R receptor; endogenous in cells; host or cells: SK-N-MC cells (crude membrane fractions)
T1 sequence (P25929 1-384): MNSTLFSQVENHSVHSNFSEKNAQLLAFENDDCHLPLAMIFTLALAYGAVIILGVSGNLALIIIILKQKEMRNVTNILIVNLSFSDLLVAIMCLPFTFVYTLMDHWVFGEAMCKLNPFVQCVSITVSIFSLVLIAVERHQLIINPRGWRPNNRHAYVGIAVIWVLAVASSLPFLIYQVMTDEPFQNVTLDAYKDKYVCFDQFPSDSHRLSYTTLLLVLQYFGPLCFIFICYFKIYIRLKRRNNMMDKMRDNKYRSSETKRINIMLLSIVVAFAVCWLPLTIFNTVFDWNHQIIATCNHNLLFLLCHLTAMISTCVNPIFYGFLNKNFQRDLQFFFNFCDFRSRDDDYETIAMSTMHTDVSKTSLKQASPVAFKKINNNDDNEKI
Assay: NPY1R binding assay: SK-N-MC membranes, [125I]-Peptide YY (human) competition
Conditions: SK-N-MC membranes

[1] = data obtained after 120 minutes at rt, [125I]-Peptide YY, read-out: hNPY.R binding Ki* ††
[2] = data obtained after 60 minutes at 37° C., [125I]-Peptide YY 0.05 nM, read-out: hNPY1R binding Ki* †

| SMILES | Ki [1] [nM] | Ki [2] [nM] |
| --- | --- | --- |
| CCC(=O)NCCNC(=O)/N=C(/N)NCCC[C@@H](NC(=O)C(c1ccccc1)c1cccc(OCCCCNC(=O)[C@@H](CCCN)NC(=O)CCNC(=O)CN2CCN(CC(=O)O)CCN(CC(=O)O)CCN(CC(=O)O)CC2)c1)C(=O)NCc1ccc(O)cc1 (single isomer, unassigned) [Compound 147B] | < 10 | – |
| CCC(=O)NCCNC(=O)/N=C(/N)NCCC[C@@H](NC(=O)C(c1ccccc1)c1cccc(OCCCCNC(=O)[C@@H](Cc2ccc3ccccc3c2)NC(=O)CCNC(=O)CN2CCN(CC(=O)O)CCN(CC(=O)O)CCN(CC(=O)O)CC2)c1)C(=O)NCc1ccc(O)cc1 (stereo partly drawn) [Compound 150, 2,2′,2″-(10-(2-((3-(((2R)-1-((4-(3-((4R,Z)-9-amino-4-((4-hydroxybenzyl)carbamoyl)-2,11,16-trioxo-1-phenyl-3,8,10,12,15-pentaazaoctadec-9-en-1-yl)phenoxy)butyl)amino)-3-(naphthalen-2-yl)-1-oxopropan-2-yl)amino)-3-oxopropyl)amino)-2-oxoethyl)-1,4,7,10-tetraazacyclododecane-1,4,7-triyl)triacetic acid] | < 10 | – |
| CCC(=O)NCCNC(=O)/N=C(/N)NCCC[C@@H](NC(=O)C(c1ccccc1)c1cccc(OCCCCNC(=O)[C@@H](CO)NC(=O)CCNC(=O)CN2CCN(CC(=O)O)CCN(CC(=O)O)CCN(CC(=O)O)CC2)c1)C(=O)NCc1c(F)cc(O)cc1F (single isomer, unassigned) [Compound 165B] | < 10 | – |
| CCC(=O)NCCNC(=O)/N=C(/N)NCCC[C@@H](NC(=O)C(c1ccccc1)c1ccc(NCCCNC(=O)CCCCCNC(=O)CN2CCN(CC(=O)O)CCN(CC(=O)O)CCN(CC(=O)O)CC2)cc1)C(=O)NCc1ccc(O)cc1 (single isomer, unassigned) [Compound 154] | < 10 | – |
| N=C(N)NCCC[C@@H](NC(=O)[C@@H](c1ccccc1)c1cccc(OCCCCNC(=O)[C@H](N)CCCCNC(=O)CN2CCN(CC(=O)O)CCN(CC(=O)O)CCN(CC(=O)O)CC2)c1)C(=O)NCc1ccc(O)cc1 [Compound 138, 2,2′,2″-(10-(2-(((R)-5-amino-6-((4-(3-((S)-2-(((R)-5-guanidino-1-((4-hydroxybenzyl)amino)-1-oxopentan-2-yl)amino)-2-oxo-1-phenylethyl)phenoxy)butyl)amino)-6-oxohexyl)amino)-2-oxoethyl)-1,4,7,10-tetraazacyclododecane-1,4,7-triyl)triacetic acid] | 10 to 100 | – |
| CCC(=O)NCCNC(=O)/N=C(/N)NCCC[C@@H](NC(=O)C(c1ccccc1)c1cccc(OCCCCNC(=O)CNC(=O)[C@@H](CC(N)=O)NC(=O)CN2CCN(CC(=O)O)CCN(CC(=O)O)CCN(CC(=O)O)CC2)c1)C(=O)NCc1ccc(O)cc1 (single isomer, unassigned) [Compound 112A] | – | 10 to 100 |
| CCC(=O)NCCNC(=O)/N=C(/N)NCCC[C@@H](NC(=O)C(c1ccccc1)c1cccc(OCCOCCNC(=O)CN2CCN(CC(=O)O)CCN(CC(=O)O)CCN(CC(=O)O)CC2)c1)C(=O)NCc1ccc(O)cc1 (stereo partly drawn) [Compound 106, 2,2′,2″-(10-(2-((2-(2-(3-((4R,Z)-9-amino-4-((4-hydroxybenzyl)carbamoyl)-2,11,16-trioxo-1-phenyl-3,8,10,12,15-pentaazaoctadec-9-en-1-yl)phenoxy)ethoxy)ethyl)amino)-2-oxoethyl)-1,4,7,10-tetraazacyclododecane-1,4,7-triyl)triacetic acid] | – | < 10 |
| CCC(=O)NCCNC(=O)/N=C(/N)NCCC[C@@H](NC(=O)C(c1ccccc1)c1cccc(OCCCCNC(=O)CCOCCNC(=O)CN2CCN(CC(=O)O)CCN(CC(=O)O)CCN(CC(=O)O)CC2)c1)C(=O)NCc1ccc(O)cc1 (single isomer, unassigned) [Compound 108B] | – | < 10 |
| CCNC(=O)/N=C(/N)NCCC[C@@H](NC(=O)C(c1ccccc1)c1ccc(NCCCNC(=O)[C@@H](CCCNC(=N)N)NC(=O)[C@@H](Cc2ccc(-c3ccccc3)cc2)NC(=O)CN2CCN(CC(=O)O)CCN(CC(=O)O)CCN(CC(=O)O)CC2)cc1)C(=O)NCc1ccc(O)cc1 (single isomer, unassigned) [Compound 152] | < 10 | – |
| CCC(=O)NCCNC(=O)/N=C(/N)NCCC[C@@H](NC(=O)C(c1ccccc1)c1ccc(NCCCNc2c(NCCCCCCNC(=O)CN3CCN(CC(=O)O)CCN(CC(=O)O)CCN(CC(=O)O)CC3)c(=O)c2=O)cc1)C(=O)NCc1ccc(O)cc1 (single isomer, unassigned) [Compound 156] | < 10 | – |
| CCC(=O)NCCNC(=O)/N=C(/N)NCCC[C@@H](NC(=O)C(c1ccccc1)c1ccc(NCCCNc2c(NCCNC(=O)CN3CCN(CC(=O)O)CCN(CC(=O)O)CCN(CC(=O)O)CC3)c(=O)c2=O)cc1)C(=O)NCc1ccc(O)cc1 (single isomer, unassigned) [Compound 124A] | < 10 | 10 to 100 |
| CCC(=O)NCCNC(=O)/N=C(/N)NCCC[C@@H](NC(=O)C(c1ccccc1)c1cccc(OCCCCNc2c(NCCNC(=O)[C@@H](CN)NC(=O)CN3CCN(CC(=O)O)CCN(CC(=O)O)CCN(CC(=O)O)CC3)c(=O)c2=O)c1)C(=O)NCc1ccc(O)cc1 (single isomer, unassigned) [Compound 115A] | < 10 | – |
| CCC(=O)NCCNC(=O)/N=C(/N)NCCC[C@@H](NC(=O)C(c1ccccc1)c1cccc(OCCCCNc2c(NCCNC(=O)[C@@H](CN)NC(=O)CN3CCN(CC(=O)O)CCN(CC(=O)O)CCN(CC(=O)O)CC3)c(=O)c2=O)c1)C(=O)NCc1ccc(O)cc1 (single isomer, unassigned) [Compound 115B] | < 10 | – |
| CCC(=O)NCCNC(=O)/N=C(/N)NCCC[C@@H](NC(=O)C(c1ccccc1)c1ccc(NCCNC(=O)[C@H](N)CCCNC(=O)CN2CCN(CC(=O)O)CCN(CC(=O)O)CCN(CC(=O)O)CC2)cc1)C(=O)NCc1ccc(O)cc1 (single isomer, unassigned) [Compound 144B] | < 10 | – |
| CCC(=O)NCCNC(=O)/N=C(/N)NCCC[C@@H](NC(=O)C(c1ccccc1)c1ccc(NCCNC(=O)[C@H](N)CCCNC(=O)CN2CCN(CC(=O)O)CCN(CC(=O)O)CCN(CC(=O)O)CC2)cc1)C(=O)NCc1ccc(O)cc1 (single isomer, unassigned) [Compound 143A] | < 10 | – |
| CCC(=O)NCCNC(=O)/N=C(/N)NCCC[C@@H](NC(=O)C(c1ccccc1)c1cccc(OCCCCNC(=O)C[C@H]2NC(=O)[C@@H](CCCNC(=O)CN3CCN(CC(=O)O)CCN(CC(=O)O)CCN(CC(=O)O)CC3)NC2=O)c1)C(=O)NCc1c(F)cc(O)cc1F (single isomer, unassigned) [Compound 164A] | < 10 | – |
| CCC(=O)NCCNC(=O)/N=C(/N)NCCC[C@@H](NC(=O)C(c1ccccc1)c1ccc(NCCCNC(=O)CN2CCC(NC(=O)CN3CCN(CC(=O)O)CCN(CC(=O)O)CCN(CC(=O)O)CC3)CC2)cc1)C(=O)NCc1ccc(O)cc1 (single isomer, unassigned) [Compound 133A] | < 10 | – |
| CCC(=O)NCCNC(=O)/N=C(/N)NCCC[C@@H](NC(=O)C(c1ccccc1)c1cccc(OCCCCNC(=O)[C@@H](CCCNC(=N)N)NC(=O)CCNC(=O)CN2CCN(CC(=O)O)CCN(CC(=O)O)CCN(CC(=O)O)CC2)c1)C(=O)NCc1ccc(O)cc1 (single isomer, unassigned) [Compound 141B] | < 10 | – |
| CCC(=O)NCCNC(=O)/N=C(/N)NCCC[C@@H](NC(=O)C(c1ccccc1)c1ccc(NCCCNC(=O)[C@H](N)CCCNC(=O)CN2CCN(CC(=O)O)CCN(CC(=O)O)CCN(CC(=O)O)CC2)cc1)C(=O)NCc1ccc(O)cc1 (single isomer, unassigned) [Compound 135A] | < 10 | – |
| CCC(=O)NCCNC(=O)/N=C(/N)NCCC[C@@H](NC(=O)C(c1ccccc1)c1cccc(OCCOCCOCCNC(=O)CN2CCN(CC(=O)O)CCN(CC(=O)O)CCN(CC(=O)O)CC2)c1)C(=O)NCc1ccc(O)cc1 (stereo partly drawn) [Compound 105, 2,2′,2″-(10-(2-((2-(2-(2-(3-((4R,Z)-9-amino-4-((4-hydroxybenzyl)carbamoyl)-2,11,16-trioxo-1-phenyl-3,8,10,12,15-pentaazaoctadec-9-en-1-yl)phenoxy)ethoxy)ethoxy)ethyl)amino)-2-oxoethyl)-1,4,7,10-tetraazacyclododecane-1,4,7-triyl)triacetic acid] | – | < 10 |
| CCC(=O)NCCNC(=O)/N=C(/N)NCCC[C@@H](NC(=O)C(c1ccccc1)c1cccc(OCCCCNC(=O)CN2CCN(C(=O)CN3CCN(CC(=O)O)CCN(CC(=O)O)CCN(CC(=O)O)CC3)CC2)c1)C(=O)NCc1ccc(O)cc1 (single isomer, unassigned) [Compound 118B] | – | < 10 |
| CCC(=O)NCCNC(=O)/N=C(/N)NCCC[C@@H](NC(=O)C(c1ccccc1)c1ccc(NCCCNC(=O)[C@@H](CCCNC(=O)CN2CCN(CC(=O)O)CCN(CC(=O)O)CCN(CC(=O)O)CC2)NC(=O)CCCc2ccc(I)cc2)cc1)C(=O)NCc1ccc(O)cc1 (single isomer, unassigned) [Compound 153] | < 10 | – |
| CCC(=O)NCCNC(=O)/N=C(/N)NCCC[C@@H](NC(=O)C(c1ccccc1)c1cccc(OCCCCNc2c(NCCONC(=O)CN3CCN(CC(=O)O)CCN(CC(=O)O)CCN(CC(=O)O)CC3)c(=O)c2=O)c1)C(=O)NCc1c(F)cc(O)cc1F (single isomer, unassigned) [Compound 169] | < 10 | – |
| CCC(=O)NCCNC(=O)/N=C(/N)NCCC[C@@H](NC(=O)C(c1ccccc1)c1ccc(NCCCNC(=O)[C@H](N)CCCNC(=O)CN2CCN(CC(=O)O)CCN(CC(=O)O)CCN(CC(=O)O)CC2)cc1)C(=O)NCc1ccc(O)cc1 (single isomer, unassigned) [Compound 135B] | < 10 | – |
